# Key:
# [1] = Decoquinate concentration in mouse plasma and liver, with and without prolongation solution; format: in vivo; parameters: concentration of the drug in plasma / concentration of the drug in liver: unit not given here; conditions: mice; for concentration of the drug in liver / concentration of the drug in plasma: 0.5 ml injected
# Description: (§1) The following examples used laboratory rats and mice.
# Decoquinate solution was mixed with two solutions: one with the prolongation solution of Example 1 and one without the prolongation solution. Each solution contained an identical and normal dosage of the drug. In both cases, 0.5 ml of solution was injected into mice of approximately identical weight. The concentration of the drug in plasma and liver was chected by high performance then layer chromatography in mouse liver and plasma.
# [2] = single 5 mg dose; cited from earlier work
# [3] = Glipizide serum level in rats after one-time administration; format: in vivo; conditions: rat, other: injected, about 0.25 mg in 3 ml prolongation solution of Example 1, injected
# Description: as §1
# Serum testing was conducted after one-time initial administration.
# in vivo = conditions: rat, Quinine serum level
# [4] = after 24 hours; cited from earlier work
# [5] = rat, in vivo, 24 h
# [6] = human, single 600 mg dose; cited from earlier work
# [7] = Rifampicin serum level in rats after one-time administration; format: in vivo; conditions: for concentration at 14 h / concentration at 32 h: serum
# Description: as §1
# Serum testing was conducted after one-time initial administration to rats. The Rifampicin level remained:
# Control test using water alone on 8 mg/rat. […] Thus, the prolongation solution is effective at reduced drug administration levels.
# [8] = single 2.0 gram dose, cited from earlier work
# [9] = NE-No Prolongation Solution, 0.5 hours
# [10] = NE-No Prolongation Solution, 1 hour
# [11] = NE-No Prolongation Solution, 2 hours
# [12] = NE-No Prolongation Solution, 4 hours
# [13] = NE-No Prolongation Solution, 8 hours
# [14] = NE-No Prolongation Solution, 24 hours
# [15] = PF-Prolongation Solution of Example 1, 0.5 hours
# [16] = PF-Prolongation Solution of Example 1, 1 hour
# [17] = PF-Prolongation Solution of Example 1, 2 hours
# [18] = PF-Prolongation Solution of Example 1, 4 hours
# [19] = PF-Prolongation Solution of Example 1, 8 hours
# [20] = PF-Prolongation Solution of Example 1, 24 hours
# [21] = rat, about 18 mg in 3 ml prolongation solution of Example 1, one-time administration
# [22] = about 8 mg/rat with prolongation solution
smiles,measurement,setting,value
CCCCCCCCCCOc1cc2c(O)c(C(=O)OCC)cnc2cc1OCC [Decoquinate],concentration of the drug in liver,[1]; [9],313860
same,concentration of the drug in plasma,[1]; [9],25565
same,concentration of the drug in liver,[1]; [10],430820
same,concentration of the drug in plasma,[1]; [10],49911
same,concentration of the drug in liver,[1]; [11],317950
same,concentration of the drug in plasma,[1]; [11],43941
same,concentration of the drug in liver,[1]; [12],323180
same,concentration of the drug in plasma,[1]; [12],35427
same,concentration of the drug in liver,[1]; [13],177470
same,concentration of the drug in plasma,[1]; [13],25131
same,concentration of the drug in liver,[1]; [14],7014
same,concentration of the drug in plasma,[1]; [14],697
same,concentration of the drug in liver,[1]; [15],149675
same,concentration of the drug in plasma,[1]; [15],15213
same,concentration of the drug in liver,[1]; [16],223565
same,concentration of the drug in plasma,[1]; [16],24638
same,concentration of the drug in liver,[1]; [17],191725
same,concentration of the drug in plasma,[1]; [17],27350
same,concentration of the drug in liver,[1]; [18],219615
same,concentration of the drug in plasma,[1]; [18],29213
same,concentration of the drug in liver,[1]; [19],181015
same,concentration of the drug in plasma,[1]; [19],27882
same,concentration of the drug in liver,[1]; [20],5549
same,concentration of the drug in plasma,[1]; [20],457
same,drop of Decoquinate level between 1 and 8 hours in plasma,[1]; no prolongation solution,50%
same,drop of Decoquinate level between 1 and 8 hours in liver,"[1]; no prolongation solution, compared with the 50% drop in plasma",almost as much
same,change in the level of Decoquinate between 1 and 8 hours,[1]; prolongation solution used,relatively little change
same,change of concentration of drug in plasma and liver for eight hours,"[1]; using the prolongation solution, compared to control",did not change
Cc1cnc(C(=O)NCCc2ccc(S(=O)(=O)NC(=O)NC3CCCCC3)cc2)cn1 [Glipizide],Peak serum level of glipizide,[2],0.1 to 0.5 µg/mL
same,time of peak serum level post dose,[2],1.6 h
same,concentration at 26 h,[3]; 26 hours,570 ng/mL
same,concentration at 52 h,[3]; 52 hours,1400 ng/mL
C=C[C@H]1C[N@@]2CC[C@H]1C[C@H]2[C@H](O)c1ccnc2ccc(OC)cc12 [Quinine],concentration at 45 min,in vivo,4600 ng/mL
same,concentration at 4 h,in vivo,3000 ng/mL
same,concentration at 9 h,in vivo,1800 ng/mL
same,concentration at 13 h,in vivo,1600 ng/mL
same,concentration at 15 h,in vivo,2100 ng/mL
same,concentration at 16 h,in vivo,230 ng/mL
same,concentration at 24 h,in vivo,1400 ng/mL
same,plasma level after termination of quinine therapy,[4],barely detectable
same,Quinine serum level,[5],2400 ng/mL
CO[C@H]1/C=C/O[C@@]2(C)Oc3c(C)c(O)c4c(O)c(c(/C=N/N5CCN(C)CC5)c(O)c4c3C2=O)NC(=O)/C(C)=C\C=C\[C@H](C)[C@H](O)[C@@H](C)[C@@H](O)[C@@H](C)[C@H](OC(C)=O)[C@@H]1C [Rifampicin],Peak plasma levels of Rifampicin,[6],3 to 13 µg/mL
same,time of peak plasma level post dose,[6],approximately 1.8 hours
same,Rifampicin serum level,"[7]; control using water alone, 8 mg/rat, after 14 hours",not being detected
same,concentration at 14 h,[7]; [21],19000 ng/mL
same,concentration at 32 h,[7]; [21],3500 ng/mL
same,concentration at 14 h,[7]; [22],14000 ng/mL
same,concentration at 32 h,[7]; [22],8500 ng/mL
Cc1noc(NS(=O)(=O)c2ccc(N)cc2)c1C [sulfisoxazole],mean time of peak plasma concentration,[8],2.5 h
same,original dose excreted in the urine,[8]; within 48 hours,About 97%

# Source: patent publication US20130158132A1, “Formulation Solution Adapted To Prolong Plasma Times Of Drugs In Mammals Including Humans” (priority 2011, published 2013)
